Results published in a melting point compilation (Tetko et al.; mined from patent text by program, amines drawn as free bases though some values may be those of a salt).

| melting point [°C] | SMILES |
| --- | --- |
| 160 to 163 | NC(=O)C1c2ccccc2SN1CCN1CCN(c2nsc3ccccc23)CC1 (stereo unspecified) |
| 120 to 122 | C[C@@H]1NCC[C@@H]1C(C)(C)O |
| 135 to 136 | Clc1cccc(OCC(Cn2ccnc2)Sc2c(Cl)cccc2Cl)c1Cl (stereo unspecified) |
| 53 to 55 | COCOc1cccc(F)c1C#N |
| 124 to 126 | CC1(C)CC(=O)OC(NCCCCN2CCN(c3ncccn3)CC2)N1 (stereo unspecified) |
| 235 | NS(=O)(=O)c1nc2ccc(OC(=O)C=Cc3ccccc3)cc2s1 |
| 303 to 307 | O=C(O)C(Cc1ccc(OCCN2c3ccccc3Oc3ccccc32)cc1)C(=O)O |
| 200 to 202 | COCCn1cnc2ccc(-c3sc(N)nc3-c3cccc(C)n3)cc21 |
| 213 to 215 | N#Cc1ccc(/C=C/C2=CCN(Cc3c[nH]c4ncccc34)CC2)cc1 |
| 33 to 34 | CON=C(c1ccc2c(c1)sc(=O)n2CCOc1ccc(CC(OCC(F)(F)F)C(=O)O)cc1)C1CC1 (stereo unspecified) |
| 251 | NS(=O)(=O)c1cccc(-c2noc(-c3cnn4c(C(F)(F)F)cc(-c5cccc(C(F)(F)F)c5)nc34)n2)c1 |
| 123 | CCC(=O)c1ccc(COc2ccc(CO)c(CO)c2)s1 |
| 87 to 89 | COc1ccc(C(O)Cc2c(Cl)cccc2Cl)cc1OC1CCCC1 (stereo unspecified) |
| 161 to 162 | CCCCOc1c(CNC(=O)OC(C)(C)C)n(CC(C)C)c(=O)c2ccc(C(C)=O)cc12 |
| 179 to 181 | O=C(O)Cc1ccc(-c2onc3ccccc23)cc1 |
| 96 | O=C1c2ccc(-c3cccc(C(F)(F)F)c3)cc2CC1Br (stereo unspecified) |
| 117 to 119 | O=S(=O)(Nc1ccc(Cl)cc1-c1cc(-c2ccc(F)cc2F)on1)C(F)(F)F |
| 141 to 142 | CS(=O)(=O)c1ccc(-c2cc(C(F)(F)F)cnc2C(=O)c2ccccc2)cc1 |
| 114 to 118 | COc1ccc2c(c1)C(N)=NCC2 |
| 90 to 91 | CC(CC(=O)c1cccc(C(F)(F)F)c1)C(=O)O (stereo unspecified) |
| 188 to 189 | O=C(Nc1ccc(C(F)(F)F)cc1)N1CC(c2ncc(Cl)s2)C(c2ccc(F)cc2)=N1 (stereo unspecified) |
| 69 to 69.5 | CN(CCc1ccc([N+](=O)[O-])cc1)Cc1nc2ccc([N+](=O)[O-])cc2o1 |
| 179 to 180 | COc1ccc(CNc2nc(SC)ncc2C(O)c2nccn2C)cc1Cl (stereo unspecified) |

| melting point [°C] | SMILES |
| --- | --- |
| 196 to 200 | NC(=O)Nc1c(C(=O)c2ccccc2)[nH]c2cc(Cl)ccc12 |
| 154 to 156 | FC1CN(C(c2ccccc2)c2ccccc2)C1 |
| 135 to 137 | O=[N+]([O-])c1oc2ccc(CCO)cc2c1-c1ccc(CO)cc1 |
| 123 to 127 | COc1ccc(N2CCN(c3c(C)c(C)c4c(c3C)CC(C)(CN3CCC(=O)CC3)O4)CC2)cc1 (stereo unspecified) |
| 49 | Cc1cc(F)nc(-c2ccc(F)cc2)c1 |
| 96 to 97 | Cc1cccc(CC(=O)O)c1OCCCc1cn(-c2ccc(C(F)(F)F)nn2)nc1C(C)(C)C |
| 140 to 142 | CC(C)(C)OC(=O)Nc1cccc(C2(O)CCOCC2)c1 |
| 269 | Nc1nc2c(ncn2[C@H]2CC[C@@H](CO)C2)c(=O)[nH]1 |
| 309 to 312 | Nc1ccc(-c2nccc3[nH]c(=O)ccc23)cc1 |
| 74 to 78 | CC#CCOc1ccc(S(=O)(=O)N(Cc2cccnc2)C(CSCc2ccccc2)C(=O)NO)cc1 (stereo unspecified) |
| 105 | COC(=O)Cc1c(C(=O)OC)oc2ccccc2c1=O |
| 223 | Cc1ccc(N2C(=O)C(O)=C(C(=O)c3ccc(C(C)C)cc3)C2c2ccc(Cn3cncn3)cc2)nn1 (stereo unspecified) |
| 140 | CCS(=O)(=O)N(CCN(C)C(C)=O)c1ccc(N)cc1 |
| 118 to 119 | CCOC(=O)C(C#N)c1ncccc1N (stereo unspecified) |
| 119 to 120 | CCCCOC(=O)c1cn(CC)c2nc(N3CCNCC3)c(F)cc2c1=O |
| 232 to 236 | O=C(Cn1c(-c2ccc(Cl)cc2)nc2cccnc21)Nc1ccccc1Cl |
| 61 to 63 | COC(=O)N1C(=O)C=CC1=O |
| 145 to 150 | COc1ccc(-c2ccncc2)cc1-c1cccc([N+](=O)[O-])c1 |
| 127 to 129 | CCCC1CCc2cc(OC)c(Cl)c(Cl)c2C1=O (stereo unspecified) |
| 272 | Fc1ccc(F)c(CN2CCNc3ncc(-c4cn[nH]c4)cc32)c1Cl |
| 68 to 69 | OCCCCc1cc(-c2ccc(C(F)(F)F)cc2)no1 |
| 152 to 155 | CCOC(=O)CCCc1ccc(CCl)cc1 |
| 124 to 126 | CS(=O)(=O)CCCOc1cccc2c1ccn2-c1ccnc(NC2CCC(C(=O)N3CCC(CN)CC3)CC2)n1 (stereo unspecified) |

| melting point [°C] | SMILES |
| --- | --- |
| 144 to 146 | COc1ccccc1N1CCN(CCCNC(=O)c2cccc3c(=O)cc(-c4ccccc4)sc23)CC1 |
| 152 to 154 | CCOCc1nc(N)c2nccnc2n1 |
| 96 to 98 | CC(C)Oc1cc(CCCOc2c(CC(=O)O)ccc3ccccc23)n(Cc2ccc(Cl)cc2Cl)n1 |
| 126 to 128 | Fc1ccc(N2CCN(Cc3cn4cc(Cl)cc(Cl)c4n3)CC2)cc1 |
| 297 | O=C(O)C1C(=O)c2cc(F)ccc2N=C1c1ccccc1 (stereo unspecified) |
| 137 to 138 | CC(C)(Sc1cccc(OCc2ccc(-c3ccc([N+](=O)[O-])cc3)o2)c1)C(=O)O |
| 190 | O=C(Nc1ccc2[nH]ncc2c1)O[C@@H](c1cccc(C(F)(F)F)c1)[C@@H]1CCCCN1 |
| 138 to 141 | O=C(COc1ccc(CN2CCOCC2)cc1)N1CCN(c2ccc(N3C[C@H](CNC(=S)C4CC4)OC3=O)cc2F)CC1 |
| 218 to 220 | CC(C)(C)OC(=O)NC(C)(C)c1ccc(-c2nc(Nc3ccc(-n4ccnc4)cc3)ncc2Cl)cc1 |
| 99 | CCCCc1ccc(OC)c(-c2csc(NC(=O)c3ccc(C(=O)N4CCC(N5CCC(OC(C)=O)C5)CC4)cc3)n2)c1 (stereo unspecified) |
| 99 to 101 | NC(=O)Cc1ccc(OCCN(CC(=O)c2ccc(OCc3ccccc3)c(OCc3ccccc3)c2)Cc2ccccc2)cc1 |
| 121 to 123 | O=C(O)C(=O)c1ccc(OCCSc2ccc3ccccc3c2)cc1 |
| 178 to 180 | CCC1(CC)c2cc(-c3nc4ccccc4s3)ccc2-c2ccc(N(c3cccc(OC)c3)c3cccc(OC)c3)cc21 |
| 278 to 280 | O=C1NC(=O)c2ccc(Br)cc2/C1=C/NCCc1c[nH]c2ccccc12 |
| 129 to 130 | CCCCOC(C(=O)Oc1ccc(C(=O)O)cc1)c1ccc2c(c1)C(C)(C)CCC2(C)C (racemic) |
| 119 to 120 | CC(C)(C)c1cc(CCc2ccccc2NC(=O)NC2CCN(Cc3cc(F)cc(F)c3)CC2)cc(C(C)(C)C)c1O |
| 66 to 68 | CNc1ccccc1C(=O)c1ccccc1 |
| 100 to 102 | COCCN(CC1=CCC(N)(Oc2ccccc2)C=C1)C(=O)C(Cl)Cl (stereo unspecified) |
| 162 to 163 | CN1CCN(c2ncc(-c3ccccc3)c(C(=O)N(C)Cc3cc(C(F)(F)F)cc(C(F)(F)F)c3)n2)CC1 |
| 240 to 246 | CC(C)(CNC=O)c1ccc2nc(-c3c[nH]cn3)[nH]c2c1 |
| 225 | CC(=O)NC(=Cc1c[nH]c2cc(Cl)ccc12)C(=O)O |
| 214 to 215 | c1ccc2cc(N3CCN(Cc4n[nH]c5ccccc45)CC3)ncc2c1 |
| 44 to 45 | O=C(CC1CCCCC1=O)c1ccccc1 (stereo unspecified) |

| melting point [°C] | SMILES |
| --- | --- |
| 105 to 106 | CCCCc1nn(-c2ccc(C(F)(F)F)cn2)cc1CCCOc1cc(CC(=O)O)ccc1OCC |
| 178 to 180 | CC(=O)Nc1cc2c(cc1[N+](=O)[O-])OC(C)(C)[C@@H](O)[C@@H]2NC(=O)CCCCl (relative stereo) |
| 222 to 225 | Cc1c(C(=O)Nc2ccc(-c3ccc(S(=O)(=O)N(C)C(C(=O)O)C(C)C)cc3)cc2)oc2cccc(C(O)CO)c12 (stereo unspecified) |
| 178 to 180 | FC(F)(F)c1cc(Nc2nc3ccccc3o2)cc(C(F)(F)F)c1 |
| 175 to 176 | O=c1c(CCCc2cncnc2)cc2cccnc2n1-c1cccc([N+](=O)[O-])c1 |
| 79 to 82 | C=C(Cn1ccnc1)c1cc(F)ccc1OCc1ccc(Cl)cc1Cl |
| 99 to 101 | CC(COc1ccc(CC(N)=O)cc1Cl)NCC(O)c1cccc(Cl)c1 (stereo unspecified) |
| 61 to 61.5 | COC(=O)c1ccc(OCCCc2ccccc2)cc1 |
| 107 to 108 | O=C(O)CCn1c(=O)c2ccccc2n(CCCCN2CCC(OC(c3ccccc3)c3ccccc3)CC2)c1=O |
| 98 | CC#CCOc1ccc(S(=O)(=O)C2(C(=O)O)CCN(C(CC)CC)CC2)cc1 |
| 207 to 208 | O=C1CN(Cc2ccccc2)C(=O)[C@@H](Cc2c[nH]c3ccccc23)N1 |
| 278 to 279 | Cc1cc(C)c2nc(C)c(C(=O)O)c(-c3ccccc3Cl)c2c1 |
| 177 to 178 | C[C@@H]1[C@H](c2ccccc2)[C@]1(NS(=O)(=O)c1ccc(-c2cc(C(C)(F)F)on2)s1)C(=O)O |
| 55 to 60 | CC(C)(C)OC(=O)N1CCC[C@@H]1C=C(Br)Br |
| 61 | CCCCCc1ccc(OC(=O)c2ccc(OCC)c(F)c2F)cc1 |
| 94 to 95 | Clc1ccc(N(Cc2ccccc2)c2ccccc2)cc1 |
| 147 to 148 | CC(C)(CNc1ccc(C2=NNC(=O)CC2)cc1)NCC(O)COc1ccccc1 (stereo unspecified) |
| 153 to 154 | NC(=O)N(O)Cc1ccc(N2CCC3(CC2)OCCO3)cc1 |
| 152 to 154 | Cc1cc(Oc2c(Cl)cc(C(F)(F)F)cc2Cl)nn1C(N)=O |
| 176 to 178 | O=C(O)CCCN1C(=O)c2ccc([N+](=O)[O-])cc2C1=O |
| 173 to 174 | Cc1ccc(-c2c(NS(=O)(=O)c3ccc(C(C)(C)C)cc3)ncnc2OCCOc2ccc(NC(=O)c3ccccc3)cn2)cc1 |

| SMILES | melting point [°C] |
| --- | --- |
| CCOC(=O)c1ncn2c1CNC(=O)c1cc(F)ccc1-2 | 298 |
| COc1cc(CCN)ccc1O | 156 to 158 |
| Cc1cc(C(=O)NC2CC2)ccc1N1CCNCC1 | 172 to 173 |
| CSc1cnc(NC2=NCC3(CN4CCC3CC4)O2)cn1 (stereo unspecified) | 155 to 160 |
| OCCNCCc1c[nH]c2ccccc12 | 92 |
| Cc1c(C(=O)NC2CCN(Cc3ccccc3)CC2)c2cc(F)ccc2n1Cc1ccccc1 | 194 to 195 |
